Experimental data taken from US20210269434A1, “TRICYCLIC COMPOUNDS AS INHIBITORS OF KRAS” (Incyte Corporation, priority 2020, published 2021).

Tests used:
[1] = molecular target: KRAS G12C (Homo sapiens, UniProt P01116, G12C); experiment: GDP-GTP exchange assay (KRAS_G12C exchange); assay type: biochemical; settings: bodipy-GDP loaded KRAS G12C 2.5 nM, SOS1 150 nM, GppNHp; 2 hours pre-incubation, 2 hours reaction; read-out: G12C_exchange
Summary of the method: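 Fluorescence exchange of bodipy-GDP for GppNHp, SOS1-driven, read at 485/520 nm; IC50 from four-parameter variable-slope fit. Both mutants used 2.5 nM final labelled protein and a 2 h compound pre-incubation. G12C reaction had 500 uM GppNHp and 150 nM SOS1 for 2 h; G12D ran 4 h.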

[2] = system: MIA PaCa-2 (KRAS G12C) cells; experiment: Cellular pERK HTRF assay (KRAS_G12C pERK); assay type: cell-based, human; settings: Homo sapiens, MIA PaCa-2, 4 hours incubation, read-out: G12C_pERK
Summary of the method: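 Phospho-ERK1/2 HTRF readout (665 and 620 nm) in lysed MIA PaCa-2 cells, antibodies incubated overnight at room temperature. Cells seeded the day before and treated with G12C compounds for 4 h at 37 °C; IC50 fitted to percent inhibition against log inhibitor concentration.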

Sequence of KRAS G12C (P01116 1-188 isoform P01116-2 G12C): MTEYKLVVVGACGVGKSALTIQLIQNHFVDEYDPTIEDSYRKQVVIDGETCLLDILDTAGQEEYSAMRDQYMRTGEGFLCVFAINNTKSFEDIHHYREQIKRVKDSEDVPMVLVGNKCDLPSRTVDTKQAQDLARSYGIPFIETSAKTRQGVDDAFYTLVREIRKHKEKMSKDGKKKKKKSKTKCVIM

Compound | IC50 [1] [nM] | IC50 [2] [nM]
CC#CC(=O)N1CC[C@H](n2nnc3c(O[C@@H](C)CN(C)C)nc4c(F)c(-c5ccc(F)cc5)c(Cl)cc4c32)C[C@H]1CC#N [Example 129, 2-((2S,4S)-1-(but-2-ynoyl)-4-(8-chloro-4-(((S)-1-(dimethylamino)propan-2-yl)oxy)-6-fluoro-7-(4-fluorophenyl)-1H-[1,2,3]triazolo[4,5-c]quinolin-1-yl)piperidin-2-yl)acetonitrile] | ≤ 100 | ≤ 100
C=CC(=O)N1CC[C@H](n2cnc3c(-c4cccnc4C)nc4c(F)c(-c5cccc(Cl)c5C)c(Cl)cc4c32)C[C@H]1CC#N [Example 173, 2-((2S,4S)-1-acryloyl-4-(8-chloro-7-(3-chloro-2-methylphenyl)-6-fluoro-4-(2-methylpyridin-3-yl)-1H-imidazo[4,5-c]quinolin-1-yl)piperidin-2-yl)acetonitrile] | ≤ 100 | ≤ 100
CC#CC(=O)N1CC[C@H](n2nnc3c(N4CC(C)(N(C)C)C4)nc4c(F)c(-c5cccc(C)c5Cl)c(C)cc4c32)C[C@H]1CC#N [Example 258, 2-((2S,4S)-1-(but-2-ynoyl)-4-(7-(2-chloro-3-methylphenyl)-4-(3-(dimethylamino)-3-methylazetidin-1-yl)-6-fluoro-8-methyl-1H-[1,2,3]triazolo[4,5-c]quinolin-1-yl)piperidin-2-yl)acetonitrile] | ≤ 100 | ≤ 100
CC#CC(=O)N1CC[C@H](n2nnc3c(N4CC(C)(N(C)C)C4)nc4c(F)c(-c5cccc(C)c5Cl)c(C(F)(F)F)cc4c32)C[C@H]1CC#N [Example 236, 2-((2S,4S)-1-(but-2-ynoyl)-4-(7-(2-chloro-3-methylphenyl)-4-(3-(dimethylamino)-3-methylazetidin-1-yl)-6-fluoro-8-(trifluoromethyl)-1H-[1,2,3]triazolo[4,5-c]quinolin-1-yl)piperidin-2-yl)acetonitrile] | ≤ 100 | ≤ 100
CC#CC(=O)N1CC[C@H](n2nnc3c(N4CC(N(C)C)C4)nc4c(F)c(-c5cccc(C)c5Cl)c(C)cc4c32)C[C@H]1CC#N [Example 250, 2-((2S,4S)-1-(but-2-ynoyl)-4-(7-(2-chloro-3-methylphenyl)-4-(3-(dimethylamino)azetidin-1-yl)-6-fluoro-8-methyl-1H-[1,2,3]triazolo[4,5-c]quinolin-1-yl)piperidin-2-yl)acetonitrile] | ≤ 100 | ≤ 100
Cc1cccc(-c2c(C)cc3c(nc(N4CC(N(C)C)C4)c4nnn([C@H]5CCN(C(=O)/C=C/C(F)F)[C@H](CC#N)C5)c43)c2F)c1C [Example 148, 2-((2S,4S)-1-((E)-4,4-difluorobut-2-enoyl)-4-(4-(3-(dimethylamino)azetidin-1-yl)-7-(2,3-dimethylphenyl)-6-fluoro-8-methyl-1H-[1,2,3]triazolo[4,5-c]quinolin-1-yl)piperidin-2-yl)acetonitrile] | ≤ 100 | ≤ 100
C=CC(=O)N1CCC(n2cnc3c(OC[C@@H]4CCCN4C)nc4c(F)c(-c5cc(O)cc6ccccc56)c(Cl)cc4c32)C1 (mixture of isomers) [Example 7, 1-(3-(8-chloro-6-fluoro-7-(3-hydroxynaphthalen-1-yl)-4-(((S)-1-methyl-pyrrolidin-2-yl)methoxy)-1H-imidazo[4,5-c]quinolin-1-yl)pyrrolidin-1-yl)prop-2-en-1-one] | ≤ 100 | ≤ 100
C=CC(=O)N1CC[C@H](n2nnc3c(N4CC(N(C)C)C4)nc4c(Cl)c(-c5cccc(Cl)c5OC)c(Cl)cc4c32)C[C@H]1CC#N [Example 290, 2-((2S,4S)-1-acryloyl-4-(6,8-dichloro-7-(3-chloro-2-methoxyphenyl)-4-(3-(dimethylamino)azetidin-1-yl)-1H-[1,2,3]triazolo[4,5-c]quinolin-1-yl)piperidin-2-yl)acetonitrile] | ≤ 100 | ≤ 100
C=CC(=O)N1CCC(n2cnc3c(-c4cc(O)cc5ccccc45)nc4c(F)c(-c5cc(O)cc6ccccc56)c(Cl)cc4c32)CC1 [Example 11, 1-(4-(8-chloro-6-fluoro-4,7-bis(3-hydroxynaphthalen-1-yl)-1H-imidazo[4,5-c]quinolin-1-yl)piperidin-1-yl)prop-2-en-1-one] | ≤ 100 | 100 to 1000
C=CC(=O)N1CC[C@H](n2nnc3c(OC[C@@H]4CCCN4C)nc4c(F)c(-c5cccc(C#N)c5C)c(Cl)cc4c32)C[C@H]1CC#N [Example 95, 3-(1-((2S,4S)-1-acryloyl-2-(cyanomethyl)piperidin-4-yl)-8-chloro-6-fluoro-4-(((S)-1-methylpyrrolidin-2-yl)methoxy)-1H-[1,2,3]triazolo[4,5-c]quinolin-7-yl)-2-methylbenzonitrile] | ≤ 100 | ≤ 100
Cc1c(Cl)cccc1-c1c(Cl)cc2c(nc(OC[C@@H]3CCCN3C)c3nnn([C@H]4CCN(C(=O)/C=C/CN(C)C)[C@H](CC#N)C4)c32)c1F [Example 88, 2-((2S,4S)-4-(8-chloro-7-(3-chloro-2-methylphenyl)-6-fluoro-4-(((S)-1-methylpyrrolidin-2-yl)methoxy)-1H-[1,2,3]triazolo[4,5-c]quinolin-1-yl)-1-((E)-4-(dimethylamino)but-2-enoyl)piperidin-2-yl)acetonitrile] | ≤ 100 | ≤ 100
C=CC(=O)N1CC[C@H](n2cnc3c(N4CC(N(C)C)C4)nc4c(F)c(-c5cc(C)ccc5C)c(Cl)cc4c32)C[C@H]1CC#N [Example 60, 2-((2S,4S)-1-acryloyl-4-(8-chloro-4-(3-(dimethylamino)azetidin-1-yl)-7-(2,5-dimethylphenyl)-6-fluoro-1H-imidazo[4,5-c]quinolin-1-yl)piperidin-2-yl)acetonitrile] | ≤ 100 | ≤ 100
C=CC(=O)N1CCC(n2cnc3c(OC[C@@H]4CCCN4C)nc4c(F)c(-c5cc(O)cc6ccccc56)c(Cl)cc4c32)CC1CC#N (single isomer, unassigned) [Example 36a] | ≤ 100 | ≤ 100
C=CC(=O)N1CC[C@H](n2cnc3c(N4CC(N(C)C)C4)nc4c(F)c(-c5cccc(Cl)c5Cl)c(Cl)cc4c32)C[C@H]1CC#N [Example 107, 2-((2S,4S)-1-acryloyl-4-(8-chloro-7-(2,3-dichlorophenyl)-4-(3-(dimethylamino)azetidin-1-yl)-6-fluoro-1H-imidazo[4,5-c]quinolin-1-yl)piperidin-2-yl)acetonitrile] | ≤ 100 | ≤ 100
C=CC(=O)N1CCCC(n2cnc3c(OC[C@@H]4CCCN4C)nc4c(F)c(-c5cc(O)cc6ccccc56)c(Cl)cc4c32)C1 (mixture of isomers) [Example 5, 1-(3-(8-chloro-6-fluoro-7-(3-hydroxynaphthalen-1-yl)-4-(((S)-1-methylpyrrolidin-2-yl)methoxy)-1H-imidazo[4,5-c]quinolin-1-yl)piperidin-1-yl)prop-2-en-1-one] | ≤ 100 | 1000 to 5000

Next, values leading:

IC50 [1] [nM] | IC50 [2] [nM] | Compound
≤ 100 | ≤ 100 | CC#CC(=O)N1CC[C@H](n2nnc3c(N4CC(C)(N(C)C)C4)nc4c(F)c(-c5c(C)c(Cl)cc6[nH]ncc56)c(C)cc4c32)C[C@H]1CC#N (single isomer, unassigned) [Example 194a]
≤ 100 | ≤ 100 | CC#CC(=O)N1CC[C@H](n2nnc3c(N4CC(N(C)C)C4)nc4c(Cl)c(-c5ccc(F)c6cccnc56)c(Cl)cc4c32)C[C@H]1CC#N [Example 274a, 2-((2S,4S)-1-(but-2-ynoyl)-4-(6,8-dichloro-4-(3-(dimethylamino)azetidin-1-yl)-7-(5-fluoroquinolin-8-yl)-1H-[1,2,3]triazolo[4,5-c]quinolin-1-yl)piperidin-2-yl)acetonitrile]
≤ 100 | ≤ 100 | C=CC(=O)N1CC[C@H](n2cnc3c(N4CC(N(C)C)C4)nc4c(F)c(-c5cnc(C)c6ccccc56)c(Cl)cc4c32)C[C@H]1CC#N [Example 268a, 2-((2S,4S)-1-acryloyl-4-(8-chloro-4-(3-(dimethylamino)azetidin-1-yl)-6-fluoro-7-(1-methylisoquinolin-4-yl)-1H-imidazo[4,5-c]quinolin-1-yl)piperidin-2-yl)acetonitrile]
≤ 100 | ≤ 100 | C=CC(=O)N1CC[C@H](n2cnc3c(N4CC(N(C)C)C4)nc4c(F)c(-c5cccc6ccncc56)c(Cl)cc4c32)C[C@H]1CC#N (single isomer, unassigned) [Example 71a]
≤ 100 | ≤ 100 | C=CC(=O)N1CC[C@H](n2cnc3c(N4CC(N(C)C)C4)nc4c(F)c(-c5c(C)ncc6ccccc56)c(Cl)cc4c32)C[C@H]1CC#N [Example 269a, 2-((2S,4S)-1-acryloyl-4-(8-chloro-4-(3-(dimethylamino)azetidin-1-yl)-6-fluoro-7-(3-methylisoquinolin-4-yl)-1H-imidazo[4,5-c]quinolin-1-yl)piperidin-2-yl)acetonitrile]
≤ 100 | ≤ 100 | C=CC(=O)N1CC[C@H](n2cnc3c(N4CC(N(C)C)C4)nc4c(F)c(-c5c(C)c(F)cc6[nH]ncc56)c(Cl)cc4c32)C[C@H]1CC#N [Example 266a, 2-((2S,4S)-1-acryloyl-4-(8-chloro-4-(3-(dimethylamino)azetidin-1-yl)-6-fluoro-7-(6-fluoro-5-methyl-1H-indazol-4-yl)-1H-imidazo[4,5-c]quinolin-1-yl)piperidin-2-yl)acetonitrile]
